Data as given in ChEMBL document CHEMBL4431388, “Molecular docking studies and synthesis of novel bisbenzimidazole derivatives as inhibitors of α-glucosidase” (Bioorg Med Chem, 2016).

What was measured:
[1] = system: Saccharomyces cerevisiae; assay: Inhibition of baker's yeast alpha-glucosidase at 300 uM using p-nitrophenyl alpha-D-glucopyranoside as substrate preincubated for 15 mins followed by substrate addition measured for 20 mins by spectrophotometric analysis relative to control
[2] = Inhibition of baker's yeast alpha-glucosidase using p-nitrophenyl alpha-D-glucopyranoside as substrate preincubated for 15 mins followed by substrate addition measured for 20 mins by spectrophotometric analysis; design: species or system Saccharomyces cerevisiae

| Compound | inhibition [1] | IC50 [2] |
| --- | --- | --- |
| NNC(=O)Cn1c(-c2nc3ccccc3n2CC(=O)NN)nc2ccccc21 | 45.8% |  |
| O=C(Cn1c(-c2nc3ccccc3n2CC(=O)NNC(=S)NCc2ccccc2)nc2ccccc21)NNC(=S)NCc1ccccc1 | 23.2% |  |
| NNC(=O)Cn1c(-c2nc3ccc([N+](=O)[O-])cc3n2CC(=O)NN)nc2ccc([N+](=O)[O-])cc21 | 100% | 0.44 µM |
| O=C(Cn1c(-c2nc3ccc([N+](=O)[O-])cc3n2CC(=O)NNC(=S)NCc2ccccc2)nc2ccc([N+](=O)[O-])cc21)NNC(=S)NCc1ccccc1 | 100% | 0.49 µM |
| O=[N+]([O-])c1ccc2nc(-c3nc4ccc([N+](=O)[O-])cc4n3Cc3nnc(S)n3Cc3ccccc3)n(Cc3nnc(S)n3Cc3ccccc3)c2c1 | 35.8% |  |
| O=[N+]([O-])c1ccc2nc(-c3nc4ccc([N+](=O)[O-])cc4n3Cc3nnc(NCc4ccccc4)s3)n(Cc3nnc(NCc4ccccc4)s3)c2c1 | 48.4% |  |
| C[C@H]1O[C@H](O[C@H]2[C@H](O)[C@@H](O)[C@@H](O[C@H]3[C@H](O)[C@@H](O)C(O)O[C@@H]3CO)O[C@@H]2CO)[C@H](O)[C@@H](O)[C@@H]1N[C@H]1C=C(CO)[C@@H](O)[C@H](O)[C@H]1O (stereo partly drawn) [ACARBOSE] | 83.3% | 13.3 µM |
| c1ccc(Nc2nnc(Cn3c(-c4nc5ccccc5n4Cc4nnc(Nc5ccccc5)s4)nc4ccccc43)s2)cc1 | 42.7% |  |
| O=C(Cn1c(-c2nc3ccccc3n2CC(=O)NNC(=S)Nc2ccccc2)nc2ccccc21)NNC(=S)Nc1ccccc1 | 39.6% |  |
| O=[N+]([O-])c1ccc2nc(-c3nc4ccc([N+](=O)[O-])cc4n3Cc3nnc(Nc4ccccc4)s3)n(Cc3nnc(Nc4ccccc4)s3)c2c1 | 89.1% | 5.27 µM |
| O=[N+]([O-])c1ccc2nc(-c3nc4ccc([N+](=O)[O-])cc4[nH]3)[nH]c2c1 | 100% | 0.54 µM |
| CCOC(=O)Cn1c(-c2nc3ccc([N+](=O)[O-])cc3n2CC(=O)OCC)nc2ccc([N+](=O)[O-])cc21 | 85.8% | 6.69 µM |
| O=C(Cn1c(-c2nc3ccc([N+](=O)[O-])cc3n2CC(=O)NNC(=S)Nc2ccccc2)nc2ccc([N+](=O)[O-])cc21)NNC(=S)Nc1ccccc1 | 100% | 1.24 µM |
| O=[N+]([O-])c1ccc2nc(-c3nc4ccc([N+](=O)[O-])cc4n3Cc3nnc(S)n3-c3ccccc3)n(Cc3nnc(S)n3-c3ccccc3)c2c1 | 23.7% |  |
| Sc1nnc(Cn2c(-c3nc4ccccc4n3Cc3nnc(S)n3-c3ccccc3)nc3ccccc32)n1-c1ccccc1 | 100% | 3.01 µM |
